Assay results published in patent US20240043928A1, “BIOMARKERS FOR MYELODYSPLASTIC SYNDROME (MDS) AND METHODS OF USING THE SAME” (Eisai R&D Management Co., Ltd., priority 2020, published 2024).

Assay: Phase I study NCT02841540: treatment-related adverse events and dose-limiting toxicities
Type: in vivo, human
Excerpt: Patients were enrolled using a conventional 3+3 dose escalation phase I design, with escalations based on a modified Fibonacci sequence scheme (Storer Biometrics. 1989;45(3):925-937). Dose escalations continued until a dose level at which ≥2 patients of the 3-6 enrolled experienced a dose-limiting toxicity (DLT). Maximally tolerated dose (MTD) was defined as the highest dose at which no more than 1 out of 6 patients experienced a DLT. DLTs were defined as any of the following: any Grade 3 or greater study drug-related non-hematologic toxicity except for Grade 3 nausea, vomiting, fatigue, or diarrhea that resolved to Grade 1 or less within 1 week; failure to administer at least 70% of the protocol-specific dose; or prolonged myelosuppression with the persistence of Grade 4 cytopenia in the absence of persistent leukemia or blast increase 21 or more days after suspending dosing. DLTs were assessed during the first 28 days using National Cancer Institute (NCI) Common Toxicity Criteria for Adverse Events (CTCAE) version 4.03.
The primary endpoints measured included occurrence of DLTs, the type and frequency of treatment-emergent adverse events (TEAEs), and serious adverse events (SAEs). Key secondary endpoints included drug pharmacokinetics (PK) and preliminary antitumor activity, such as the overall response rate (ORR), effect of drug therapy on transfusion requirements, and overall survival (OS). Biomarker analyses and drug pharmacodynamics (PD) were included as exploratory endpoints. […] In addition, a second schedule (Schedule II) of 21 days on therapy and a rest of 7 days without therapy was explored. […] However, when limited clinical activity was observed on Schedule I, Schedule II was introduced to test whether more prolonged spliceosome modulation would lead to higher clinical activity. Each treatment cycle was 28 days in length. Patients could continue treatment until disease progression or development of unacceptable toxicity.
Eligibility criteria included normal vitamin A levels and visual acuity that corrected to 20/40 unless a cataract was present. Ophthalmologic evaluation, including fundoscopic imaging and visual evoked potentials, was performed during study screening and periodically throughout the duration of the trial.

[1] = Schedule I, 1, 2, 3.5, & 5 mg QD, N = 25

## C/C(=C\C=C\[C@@H](C)c1ccccn1)[C@H]1OC(=O)C[C@H](O)CC[C@@](C)(O)[C@@H](OC(=O)N2CCN(C)CC2)/C=C/[C@@H]1C [Compound 1, (2S,3S,4E,6S,7R,10R)-7,10-dihydroxy-3,7-dimethyl-12-oxo-2-[(2E,4E,6R)-6-(pyridine-2-yl)hepta-2,4-dien-2-yl]oxacyclododec-4-en-6-yl-4-methylpiperazine-1-carboxylate]
7 mg, Schedule I, first week of study therapy
  adverse event in a patient with SF3B1-mutant lower-risk MDS: developed pancytopenia and marrow aplasia
9 of the 12 subjects
  male share of subjects who reported grade 3 treatment related AEs: 75%
45 of the 63 subjects
  male share of subjects reporting treatment related AEs (all grades): 71%
Schedule I
  MTD (initially defined, not formally confirmed): 30 mg
  recommended QD dose: 30 mg per day
Schedule I, 1 mg-40 mg
  dose dependency in the rate of treatment related TEAEs (all grades): no obvious dose dependency
Schedule I, 7 mg QD, N = 14
  Any TEAE (treatment-related, all grades): 11 (79) n (%)
  Diarrhea (treatment-related TEAE, all grades): 4 (29) n (%)
  Fatigue (treatment-related TEAE, all grades): 2 (14) n (%)
  Nausea (treatment-related TEAE, all grades): 4 (29) n (%)
  Vomiting (treatment-related TEAE, all grades): 2 (14) n (%)
Schedule I, 7 mg, lower-risk MDS and SF3B1 mutation
  patients with DLT marrow aplasia: 1 patient
Schedule I, 10 mg QD, N = 7
  Any TEAE (treatment-related, all grades): 3 (43) n (%)
  Diarrhea (treatment-related TEAE, all grades): 2 (29) n (%)
  Fatigue (treatment-related TEAE, all grades): 1 (14) n (%)
  Nausea (treatment-related TEAE, all grades): 2 (29) n (%)
  Vomiting (treatment-related TEAE, all grades): 2 (29) n (%)
Schedule I, 14 mg QD, N = 5
  Any TEAE (treatment-related, all grades): 5 (100) n (%)
  Diarrhea (treatment-related TEAE, all grades): 5 (100) n (%)
  Fatigue (treatment-related TEAE, all grades): 0 n (%)
  Nausea (treatment-related TEAE, all grades): 1 (20) n (%)
  Vomiting (treatment-related TEAE, all grades): 1 (20) n (%)
Schedule I, 20 mg QD, N = 4
  Any TEAE (treatment-related, all grades): 3 (75) n (%)
  Diarrhea (treatment-related TEAE, all grades): 1 (25) n (%)
  Fatigue (treatment-related TEAE, all grades): 2 (50) n (%)
  Nausea (treatment-related TEAE, all grades): 2 (50) n (%)
  Vomiting (treatment-related TEAE, all grades): 0 n (%)
Schedule I, 30 mg QD, N = 4
  Any TEAE (treatment-related, all grades): 4 (100) n (%)
  Diarrhea (treatment-related TEAE, all grades): 3 (75) n (%)
  Fatigue (treatment-related TEAE, all grades): 1 (25) n (%)
  Nausea (treatment-related TEAE, all grades): 3 (75) n (%)
  Vomiting (treatment-related TEAE, all grades): 0 n (%)
Schedule I, 40 mg
  patients with DLT prolonged QTcF >500 msec (investigator-assessed): 2 out of 6
  subjects reporting grade 3 AEs: 3 of 6
Schedule I, 40 mg QD, N = 6
  Any TEAE (treatment-related, all grades): 5 (83) n (%)
  Diarrhea (treatment-related TEAE, all grades): 5 (83) n (%)
  Fatigue (treatment-related TEAE, all grades): 2 (33) n (%)
  Nausea (treatment-related TEAE, all grades): 3 (50) n (%)
  Vomiting (treatment-related TEAE, all grades): 3 (50) n (%)
Schedule I, 40 mg, N=6
  subjects reporting a treatment related TEAE: 83%
[1]
  Any TEAE (treatment-related, all grades): 19 (76) n (%)
  Diarrhea (treatment-related TEAE, all grades): 7 (28) n (%)
  Fatigue (treatment-related TEAE, all grades): 3 (12) n (%)
  Nausea (treatment-related TEAE, all grades): 3 (12) n (%)
  Vomiting (treatment-related TEAE, all grades): 1 (4) n (%)
Schedule I, N = 65
  Anemia (Grade 3 or 4 treatment-related TEAE): 4 (6) n (%)
  ECG QTcF prolonged (Grade 3 or 4 treatment-related TEAE): 2 (3) n (%)
  Fatigue (Grade 3 or 4 treatment-related TEAE): 2 (3) n (%)
  Hypophosphatemia (Grade 3 or 4 treatment-related TEAE): 0 n (%)
  Nausea (Grade 3 or 4 treatment-related TEAE): 0 n (%)
  Platelet count decreased (Grade 3 or 4 treatment-related TEAE): 2 (3) n (%)
  Sinus bradycardia (Grade 3 or 4 treatment-related TEAE): 0 n (%)
Schedule I, Total, N = 65
  Any TEAE (treatment-related, all grades): 50 (77) n (%)
  Diarrhea (treatment-related TEAE, all grades): 27 (42) n (%)
  Fatigue (treatment-related TEAE, all grades): 11 (17) n (%)
  Nausea (treatment-related TEAE, all grades): 18 (28) n (%)
  Vomiting (treatment-related TEAE, all grades): 9 (14) n (%)
Schedule I, all patients
  diarrhea, treatment-related TEAE: 42%
  fatigue, treatment-related TEAE: 17%
  nausea, treatment-related TEAE: 28%
  vomiting, treatment-related TEAE: 14%
Schedule I, lowest combined dose level (1, 2, 3.5 and 5 mg, N=25)
  subjects reporting a treatment related TEAE: 76%
Schedule II
  MTD (initially defined, not formally confirmed): 14 mg
  recommended QD dose: 14 mg per day
Schedule II, 7 mg QD, N = 5
  Any TEAE (treatment-related, all grades): 1 (20) n (%)
  Diarrhea (treatment-related TEAE, all grades): 1 (20) n (%)
  Dysgeusia (treatment-related TEAE, all grades): 0 n (%)
  ECG QTcF prolonged (treatment-related TEAE, all grades): 0 n (%)
  Fatigue (treatment-related TEAE, all grades): 0 n (%)
  Hypophosphatemia (treatment-related TEAE, all grades): 0 n (%)
  Nausea (treatment-related TEAE, all grades): 0 n (%)
  Vomiting (treatment-related TEAE, all grades): 0 n (%)
Schedule II, 7 mg-20 mg
  dose dependency of treatment related AEs: dose dependency trend
Schedule II, 12 mg QD, N = 5
  Any TEAE (treatment-related, all grades): 4 (80) n (%)
  Diarrhea (treatment-related TEAE, all grades): 1 (20) n (%)
  Dysgeusia (treatment-related TEAE, all grades): 1 (20) n (%)
  ECG QTcF prolonged (treatment-related TEAE, all grades): 0 n (%)
  Fatigue (treatment-related TEAE, all grades): 1 (20) n (%)
  Hypophosphatemia (treatment-related TEAE, all grades): 2 (40) n (%)
  Nausea (treatment-related TEAE, all grades): 1 (20) n (%)
  Vomiting (treatment-related TEAE, all grades): 0 n (%)
Schedule II, 14 mg
  patients with DLT grade 3 sinus bradycardia: 1 of 5
Schedule II, 14 mg QD, N = 5
  Any TEAE (treatment-related, all grades): 4 (80) n (%)
  Diarrhea (treatment-related TEAE, all grades): 2 (40) n (%)
  Dysgeusia (treatment-related TEAE, all grades): 0 n (%)
  ECG QTcF prolonged (treatment-related TEAE, all grades): 1 (20) n (%)
  Fatigue (treatment-related TEAE, all grades): 0 n (%)
  Hypophosphatemia (treatment-related TEAE, all grades): 0 n (%)
  Nausea (treatment-related TEAE, all grades): 0 n (%)
  Vomiting (treatment-related TEAE, all grades): 1 (20) n (%)
Schedule II, 20 mg
  patients with DLTs (Grade 3 QTc prolongation; Grade 3 nausea): 2 of 4
  subjects reporting grade 3 AEs: 3 of the 4
Schedule II, 20 mg QD, N = 4
  Any TEAE (treatment-related, all grades): 4 (100) n (%)
  Diarrhea (treatment-related TEAE, all grades): 4 (100) n (%)
  Dysgeusia (treatment-related TEAE, all grades): 1 (25) n (%)
  ECG QTcF prolonged (treatment-related TEAE, all grades): 2 (50) n (%)
  Fatigue (treatment-related TEAE, all grades): 1 (25) n (%)
  Hypophosphatemia (treatment-related TEAE, all grades): 0 n (%)
  Nausea (treatment-related TEAE, all grades): 2 (50) n (%)
  Vomiting (treatment-related TEAE, all grades): 3 (75) n (%)
Schedule II, N = 19
  Anemia (Grade 3 or 4 treatment-related TEAE): 0 n (%)
  ECG QTcF prolonged (Grade 3 or 4 treatment-related TEAE): 1 (5) n (%)
  Fatigue (Grade 3 or 4 treatment-related TEAE): 1 (5) n (%)
  Hypophosphatemia (Grade 3 or 4 treatment-related TEAE): 1 (5) n (%)
  Nausea (Grade 3 or 4 treatment-related TEAE): 1 (5) n (%)
  Platelet count decreased (Grade 3 or 4 treatment-related TEAE): 1 (5) n (%)
  Sinus bradycardia (Grade 3 or 4 treatment-related TEAE): 1 (5) n (%)
Schedule II, Total, N = 19
  Any TEAE (treatment-related, all grades): 13 (68) n (%)
  Diarrhea (treatment-related TEAE, all grades): 8 (42) n (%)
  Dysgeusia (treatment-related TEAE, all grades): 2 (11) n (%)
  ECG QTcF prolonged (treatment-related TEAE, all grades): 3 (16) n (%)
  Fatigue (treatment-related TEAE, all grades): 2 (11) n (%)
  Hypophosphatemia (treatment-related TEAE, all grades): 2 (11) n (%)
  Nausea (treatment-related TEAE, all grades): 3 (16) n (%)
  Vomiting (treatment-related TEAE, all grades): 4 (21) n (%)
Schedule II, all patients
  QTcF (Fridericia method) prolongation, treatment-related TEAE: 16%
  diarrhea, treatment-related TEAE: 42%
  dysgeusia, treatment-related TEAE: 11%
  fatigue, treatment-related TEAE: 11%
  hypophosphatemia, treatment-related TEAE: 11%
  nausea, treatment-related TEAE: 16%
  vomiting, treatment-related TEAE: 21%
Schedule II, highest dose level tested
  subjects with treatment related AEs (all grades): 100%
Schedule II, lowest dose level tested
  subjects with treatment related AEs (all grades): 20%
Both schedules
  patients who experienced an AE characterized as a DLT: 6 patients
  subjects reporting treatment related AEs (all grades): 63 subjects
  subjects who reported grade 3 treatment related AEs: 12 subjects
In vivo
  ocular adverse event: One event of Grade 3 ocular papilledema was reported, without loss in visual acuity
